Experimental data reported in PubChem BioAssay AID1963969 (Molecular Pharmacology Branch, DTP, NCI, 2024).
Each block holds one molecule with its values, some of them ahead of it.

Tested on: 817829-284-R-J1-PDC multi-cell spheroid viability
Experiment: Anticancer human tumor 817829-284-R-J1-PDC patient-derived colon adenocarcinoma cell line growth inhibition [PI3K]
Conditions: for IC50: curve of first compound; for viability, T/C: stronger effect = lower value
From the text: Combinatorial screen of targeted agents with the PI3K inhibitors inavolisib, alpelisib, duvelisib, and copanlisib in multi-cell type tumor spheroids
A high-throughput screen of multi-cell type tumor spheroids was designed to identify active combinations of targeted small molecules and PI3K pathway inhibitors. Complex spheroids include a stromal component modeled by human endothelial cells (HUVEC) and fibroblasts modeled by human mesenchymal stem cells (MSCs). The concentration ranges selected for each drug and investigational agent were based upon clinically achievable concentrations if the clinical Cmax of the agent was known.
Compounds. The drugs and investigational agents: inavolisib (NSC800729), alpelisib (NSC765974), duvelisib (NSC772469), copanlisib (NSC816437), ipatasertib (NSC767898), afuresertib (NSC778305), talazoparib (NSC767125), sapanisertib (NSC764658), selumetinib (NSC741078), tovorafenib (DAY101, NSC766906), vemurafenib (NSC761431), ravoxertinib (NSC781343), sotorasib (NSC818433), MRTX1133 (NSC 836407), abemaciclib (NSC 768073), palbociclib (NSC758247), venetoclax (NSC 766270), SY5609 (NSC837396), enzalutamide (NSC755605), and darolutamide (NSC825331), were obtained from the National Cancer Institute (NCI) Developmental Therapeutics Program Chemical Repository. The FDA-approved anticancer drug set is available from the NCI Developmental Therapeutics Program. […] The stock solutions were prepared in dimethyl sulfoxide (DMSO, Sigma-Aldrich, St. Louis, MO, cat. D2650) at 800-fold the tested concentration and stored at -70 degrees C prior to their use. All drugs and investigational agents were tested over a range starting from a high concentration at or near the clinical Cmax and decreasing in half-log increments. If the clinical Cmax for an agent had not been determined, the highest concentration tested was 10 microM.
Cell Culture. All cells were maintained in an incubator at 37 degrees C and 5% CO2 with 95% humidity. The PDC lines were cultured according to standard operating procedures established by the NCI PDMR (https://pdmr.cancer.gov/sops/default.htm). All PDCs were thawed and cultured in Matrigel-coated flasks prepared with a working solution of 1X Ham's F-12 nutrient mix, without supplementation (Invitrogen, Waltham, MA, cat. 11765054), 100 U/mL penicillin-streptomycin (Invitrogen, cat. 15140122), and 2.5% Matrigel (Corning Inc., Corning, NY, cat. 354248) for the first three passages. The 354836-022-R-J1-PDC, 475296-252-R-J1-PDC, and 997726-040-R-J2-PDC lines were cultured in 6A media, which includes advanced DMEM/F-12 (Thermo Fisher Scientific, cat. 12634028), 10 mM HEPES (Thermo Fisher Scientific, cat. 15630080), 1X GlutaMAX supplement (Thermo Fisher Scientific, cat. 35050061), 0.1 mg/mL primocin (InvivoGen, San Diego, CA, cat. ant-pm-2), 10% defined fetal bovine serum, heat inactivated (HyClone Laboratories Inc., Logan, UT, cat. SH30070.03HI), 50% L-WRN conditioned media (ATCC, cat. CRL-3276), 1.25 mM N-Acetyl-L-cysteine (Sigma-Aldrich, cat. A9165), 10 mM nicotinamide (Sigma-Aldrich, cat. N0636), 1X B-27 supplement (Thermo Fisher Scientific, cat. 17504044), 1X N-2 supplement (Thermo Fisher Scientific, cat. 17502048), and 10 microM Y-27632 dihydrochloride (Tocris Bioscience, Bristol, United Kingdom, cat. 1254). The 624824-186-R-J2-PDC line was cultured in 6C/Colon 1B media, which includes all 6A media components plus 50 ng/mL human EGF recombinant protein (Thermo Fisher Scientific, cat. PHG0311). […]

[1] = second compound 0.00316 µM, first compound 0.0316 µM
[2] = second compound 0.00316 µM, first compound 0.1 µM
[3] = second compound 0.00316 µM, first compound 0.316 µM
[4] = second compound 0.00316 µM, first compound 1 µM
[5] = second compound 0.00316 µM, first compound 3.16 µM
[6] = second compound 0.00316 µM, first compound 10 µM
[7] = second compound 0.01 µM, first compound 0.0316 µM
[8] = second compound 0.01 µM, first compound 0.1 µM
[9] = second compound 0.01 µM, first compound 0.316 µM
[10] = second compound 0.01 µM, first compound 1 µM
[11] = second compound 0.01 µM, first compound 3.16 µM
[12] = second compound 0.01 µM, first compound 10 µM
[13] = second compound 0.0316 µM, first compound 0.0316 µM
[14] = second compound 0.0316 µM, first compound 0.1 µM
[15] = second compound 0.0316 µM, first compound 0.316 µM
[16] = second compound 0.0316 µM, first compound 1 µM
[17] = second compound 0.0316 µM, first compound 3.16 µM
[18] = second compound 0.0316 µM, first compound 10 µM
[19] = second compound 0.1 µM, first compound 0.0316 µM
[20] = second compound 0.1 µM, first compound 0.1 µM
[21] = second compound 0.1 µM, first compound 0.316 µM
[22] = second compound 0.1 µM, first compound 1 µM
[23] = second compound 0.1 µM, first compound 3.16 µM
[24] = second compound 0.1 µM, first compound 10 µM
[25] = second compound 0.316 µM, first compound 0.0316 µM
[26] = second compound 0.316 µM, first compound 0.1 µM
[27] = second compound 0.316 µM, first compound 0.316 µM
[28] = second compound 0.316 µM, first compound 1 µM
[29] = second compound 0.316 µM, first compound 3.16 µM
[30] = second compound 0.316 µM, first compound 10 µM
[31] = second compound 1 µM, first compound 0.0316 µM
[32] = second compound 1 µM, first compound 0.1 µM
[33] = second compound 1 µM, first compound 0.316 µM
[34] = second compound 1 µM, first compound 1 µM
[35] = second compound 1 µM, first compound 3.16 µM
[36] = second compound 1 µM, first compound 10 µM
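Further: spheroids exposed to agents for seven days before readout.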
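Wherever viability, T/C is given: percent of vehicle DMSO control viability which is 100%.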

- IC50 (second compound 0.00316 µM): > 10 µM
- IC50 (second compound 0.01 µM): > 10 µM
- IC50 (second compound 0.0316 µM): > 10 µM
- IC50 (second compound 0.1 µM): 6.65 µM
- IC50 (second compound 0.316 µM): > 10 µM
- IC50 (second compound 1 µM): > 10 µM
Compound: C=CC(=O)N1CCN(c2nc(=O)n(-c3c(C)ccnc3C(C)C)c3nc(-c4c(O)cccc4F)c(F)cc23)C(C)C1 (centres undefined) + CC(Nc1ccc2c(c1)OCCn1cc(N3C(=O)OCC3C(F)F)nc1-2)C(N)=O
- viability, T/C [1]: 91.4%
- viability, T/C [2]: 93.3%
- viability, T/C [3]: 82.9%
- viability, T/C [4]: 71.9%
- viability, T/C [5]: 77.9%
- viability, T/C [6]: 55.4%
- viability, T/C [7]: 62.7%
- viability, T/C [8]: 57.7%
- viability, T/C [9]: 83.9%
- viability, T/C [10]: 78.6%
- viability, T/C [11]: 84.8%
- viability, T/C [12]: 38.9%
- viability, T/C [13]: 53.8%
- viability, T/C [14]: 112%
- viability, T/C [15]: 108%
- viability, T/C [16]: 51.1%
- viability, T/C [17]: 64%
- viability, T/C [18]: 73.7%
- viability, T/C [19]: 64.7%
- viability, T/C [20]: 92.2%
- viability, T/C [21]: 79.2%
- viability, T/C [22]: 84.2%
- viability, T/C [23]: 78.9%
- viability, T/C [24]: 34.1%
- viability, T/C [25]: 60.1%
- viability, T/C [26]: 75.9%
- viability, T/C [27]: 67.4%
- viability, T/C [28]: 52.6%
- viability, T/C [29]: 68%
- viability, T/C [30]: 44.6%
- viability, T/C [31]: 61.6%
- viability, T/C [32]: 53.9%
- viability, T/C [33]: 79.3%
- viability, T/C [34]: 57.3%
- viability, T/C [35]: 62.7%
- viability, T/C [36]: 53.5%

- IC50 (second compound 0.00316 µM): > 10 µM
- IC50 (second compound 0.01 µM): 8.89 µM
- IC50 (second compound 0.0316 µM): > 10 µM
- IC50 (second compound 0.1 µM): > 10 µM
- IC50 (second compound 0.316 µM): > 10 µM
- IC50 (second compound 1 µM): > 10 µM
Compound: CC(Cn1ccc(-c2ccc(C#N)c(Cl)c2)n1)NC(=O)c1cc(C(C)O)[nH]n1 (centres undefined) + CC(Nc1ccc2c(c1)OCCn1cc(N3C(=O)OCC3C(F)F)nc1-2)C(N)=O
- viability, T/C [1]: 91.8%
- viability, T/C [2]: 127%
- viability, T/C [3]: 99%
- viability, T/C [4]: 96.2%
- viability, T/C [5]: 94.4%
- viability, T/C [6]: 53.1%
- viability, T/C [7]: 140%
- viability, T/C [8]: 86.2%
- viability, T/C [9]: 86.4%
- viability, T/C [10]: 70.8%
- viability, T/C [11]: 63.5%
- viability, T/C [12]: 57.4%
- viability, T/C [13]: 67.4%
- viability, T/C [14]: 96.8%
- viability, T/C [15]: 78%
- viability, T/C [16]: 78.6%
- viability, T/C [17]: 74.1%
- viability, T/C [18]: 59.9%
- viability, T/C [19]: 81.5%
- viability, T/C [20]: 114%
- viability, T/C [21]: 62.3%
- viability, T/C [22]: 117%
- viability, T/C [23]: 79.5%
- viability, T/C [24]: 55.3%
- viability, T/C [25]: 77.1%
- viability, T/C [26]: 66.1%
- viability, T/C [27]: 76.8%
- viability, T/C [28]: 58.7%
- viability, T/C [29]: 110%
- viability, T/C [30]: 46.4%
- viability, T/C [31]: 75.5%
- viability, T/C [32]: 39%
- viability, T/C [33]: 65.6%
- viability, T/C [34]: 72.9%
- viability, T/C [35]: 60%
- viability, T/C [36]: 50.8%
